In article PMC7179119, “A New Positron Emission Tomography Probe for Orexin Receptors Neuroimaging” (Molecules, 2020):
Read-outs that look alike come from different tables or passages of the source.

Experiments:
Experiment in all cases: PDSP off-target radioligand binding assay
D2 = target: T1, D2 (Homo sapiens, UniProt P14416)
T1 construct: NIMH PDSP
Protocol: (§1) Table S1. Off binding data of CW24.
(§2) The off-target binding assays were performed at PDSP with their standard protocol (https://pdspdb.unc.edu/pdspWeb/content/UNC-CH%20Protocol%20Book.pdf). In radioligand binding assays, CW24 was tested at a single concentration (10 µM) and in quadruplicate in 96-well plates. The binding assays were carried out in a final of volume of 125 µl per well in appropriate binding buffers. The hot ligand concentration is usually at a concentration close to the Kd (unless otherwise indicated). Total binding and nonspecific binding are determined in the absence and presence of 10 µM of the appropriate reference compound, respectively. In brief, plates are usually incubated at room temperature and in the dark for 90 mins. Reactions are stopped by vacuum filtration onto 0.3% polyethyleneimine (PEI) soaked 96-well filter mats using a 96-well Filtermate harvester, followed by three washes with cold wash buffers (for details, see Tables 2 to 24). Scintillation cocktail is then melted onto the microwave-dried filters on a hot plate and radioactivity is counted in a Microbeta counter.
(§3) Receptor % Inhibition 1 % Inhibition 2 % Inhibition 3 % Inhibition 4 Mean±SD %

5-HT1B = target: T2, 5-HT1B (Homo sapiens, UniProt P28222)
T2 construct: NIMH PDSP
T2 sequence (P28222 whole entry, species assumed): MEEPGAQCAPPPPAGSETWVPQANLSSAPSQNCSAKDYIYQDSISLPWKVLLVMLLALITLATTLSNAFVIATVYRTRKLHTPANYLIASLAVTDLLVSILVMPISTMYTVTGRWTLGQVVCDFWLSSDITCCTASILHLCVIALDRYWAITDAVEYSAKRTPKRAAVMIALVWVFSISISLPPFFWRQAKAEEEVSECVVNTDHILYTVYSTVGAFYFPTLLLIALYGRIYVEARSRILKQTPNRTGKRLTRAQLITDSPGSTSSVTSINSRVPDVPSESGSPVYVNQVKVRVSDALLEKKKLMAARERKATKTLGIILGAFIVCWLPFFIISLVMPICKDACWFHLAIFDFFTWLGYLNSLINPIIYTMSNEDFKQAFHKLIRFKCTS
Protocol: as §1, §2, §3

Beta2 = target: T3, Beta2 (Homo sapiens, UniProt P07550)
T3 construct: NIMH PDSP
T3 sequence (P07550 whole entry): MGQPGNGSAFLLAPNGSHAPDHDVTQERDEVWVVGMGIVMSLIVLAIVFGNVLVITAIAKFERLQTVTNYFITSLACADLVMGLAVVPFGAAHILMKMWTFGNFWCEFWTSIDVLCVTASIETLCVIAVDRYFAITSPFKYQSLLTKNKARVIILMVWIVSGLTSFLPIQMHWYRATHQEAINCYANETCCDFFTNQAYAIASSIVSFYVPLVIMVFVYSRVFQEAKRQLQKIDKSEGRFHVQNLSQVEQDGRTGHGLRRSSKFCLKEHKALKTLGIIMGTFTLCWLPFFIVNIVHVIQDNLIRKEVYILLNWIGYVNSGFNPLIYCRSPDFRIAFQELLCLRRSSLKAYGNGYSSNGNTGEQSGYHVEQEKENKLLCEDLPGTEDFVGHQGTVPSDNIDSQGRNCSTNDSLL
Protocol: as §1, §2, §3

M5 = target: T4, M5 (Homo sapiens, UniProt P08912)
T4 sequence (P08912 1-532): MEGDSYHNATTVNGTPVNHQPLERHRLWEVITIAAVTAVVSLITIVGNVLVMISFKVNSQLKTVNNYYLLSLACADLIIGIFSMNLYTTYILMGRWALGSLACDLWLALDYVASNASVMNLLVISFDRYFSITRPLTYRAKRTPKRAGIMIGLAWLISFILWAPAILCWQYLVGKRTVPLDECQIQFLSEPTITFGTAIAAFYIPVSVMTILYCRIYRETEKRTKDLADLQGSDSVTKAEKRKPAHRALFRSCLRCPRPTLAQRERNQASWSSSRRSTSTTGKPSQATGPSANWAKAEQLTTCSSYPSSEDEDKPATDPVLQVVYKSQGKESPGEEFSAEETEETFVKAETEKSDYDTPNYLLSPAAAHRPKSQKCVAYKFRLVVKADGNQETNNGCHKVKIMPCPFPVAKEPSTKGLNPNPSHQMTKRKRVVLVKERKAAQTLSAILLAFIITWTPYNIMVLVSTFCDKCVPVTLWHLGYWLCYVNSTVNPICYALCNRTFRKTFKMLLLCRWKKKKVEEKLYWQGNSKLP
Protocol: as §1, §2, §3

Alpha1B = target: T5, Alpha1B (Homo sapiens, UniProt P35368)
T5 construct: NIMH PDSP
T5 sequence (P35368 1-520): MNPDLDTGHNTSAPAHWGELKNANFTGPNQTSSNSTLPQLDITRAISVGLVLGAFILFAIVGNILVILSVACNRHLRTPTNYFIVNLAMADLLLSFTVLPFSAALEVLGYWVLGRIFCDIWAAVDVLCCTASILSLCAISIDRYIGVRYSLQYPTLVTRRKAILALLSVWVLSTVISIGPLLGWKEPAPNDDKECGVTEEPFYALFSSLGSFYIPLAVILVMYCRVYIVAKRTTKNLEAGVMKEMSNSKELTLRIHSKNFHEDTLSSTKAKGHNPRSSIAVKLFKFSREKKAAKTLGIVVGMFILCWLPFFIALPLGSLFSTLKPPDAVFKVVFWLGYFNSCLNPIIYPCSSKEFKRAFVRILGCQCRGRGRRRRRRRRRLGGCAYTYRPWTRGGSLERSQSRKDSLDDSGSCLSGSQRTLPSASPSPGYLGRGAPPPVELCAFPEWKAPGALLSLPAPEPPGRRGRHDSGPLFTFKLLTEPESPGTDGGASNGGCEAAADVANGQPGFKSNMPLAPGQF
Protocol: as §1, §2, §3

SERT = SERT (Homo sapiens, UniProt P31645)
Chain of SERT (P31645 whole entry, species assumed): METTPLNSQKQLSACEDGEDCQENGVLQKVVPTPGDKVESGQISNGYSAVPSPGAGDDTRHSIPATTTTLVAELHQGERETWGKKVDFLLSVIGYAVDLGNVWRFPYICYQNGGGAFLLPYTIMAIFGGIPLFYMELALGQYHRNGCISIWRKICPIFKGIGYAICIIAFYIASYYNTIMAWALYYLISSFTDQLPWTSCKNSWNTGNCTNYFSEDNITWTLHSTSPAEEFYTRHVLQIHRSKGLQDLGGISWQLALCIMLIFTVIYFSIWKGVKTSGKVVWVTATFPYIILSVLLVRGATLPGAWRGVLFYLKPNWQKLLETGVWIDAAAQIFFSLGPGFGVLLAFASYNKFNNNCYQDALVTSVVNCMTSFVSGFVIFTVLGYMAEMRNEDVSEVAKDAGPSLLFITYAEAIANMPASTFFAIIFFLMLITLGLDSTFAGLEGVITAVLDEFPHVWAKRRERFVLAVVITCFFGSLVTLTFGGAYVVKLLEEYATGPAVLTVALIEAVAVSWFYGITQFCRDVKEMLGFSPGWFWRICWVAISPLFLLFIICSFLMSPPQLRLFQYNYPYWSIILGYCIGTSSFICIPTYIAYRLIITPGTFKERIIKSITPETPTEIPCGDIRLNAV
Protocol: as §1, §2, §3

5-HT3 = target: T6, 5-HT3 (Homo sapiens, UniProt P46098)
T6 construct: NIMH PDSP
T6 sequence (P46098 24-478): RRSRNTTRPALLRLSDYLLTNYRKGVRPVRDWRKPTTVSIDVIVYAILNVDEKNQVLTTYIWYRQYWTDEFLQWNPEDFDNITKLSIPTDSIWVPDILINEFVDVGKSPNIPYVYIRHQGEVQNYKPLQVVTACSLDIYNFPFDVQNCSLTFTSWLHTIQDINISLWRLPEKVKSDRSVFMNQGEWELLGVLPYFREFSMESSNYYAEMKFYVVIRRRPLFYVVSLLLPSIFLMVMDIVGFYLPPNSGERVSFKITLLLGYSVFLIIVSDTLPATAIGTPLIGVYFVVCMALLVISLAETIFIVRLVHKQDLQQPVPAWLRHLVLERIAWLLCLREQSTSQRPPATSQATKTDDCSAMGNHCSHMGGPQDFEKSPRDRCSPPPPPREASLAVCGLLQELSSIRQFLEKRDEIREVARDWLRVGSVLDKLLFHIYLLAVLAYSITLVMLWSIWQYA
Protocol: as §1, §2, §3

[1] = quadruplicate, read-out: Mean±SD % inhibition
[2] = replicate 1, read-out: % Inhibition 1
[3] = replicate 2, read-out: % Inhibition 2
[4] = replicate 3, read-out: % Inhibition 3
[5] = replicate 4, read-out: % Inhibition 4

T1 sequence (P14416 whole entry): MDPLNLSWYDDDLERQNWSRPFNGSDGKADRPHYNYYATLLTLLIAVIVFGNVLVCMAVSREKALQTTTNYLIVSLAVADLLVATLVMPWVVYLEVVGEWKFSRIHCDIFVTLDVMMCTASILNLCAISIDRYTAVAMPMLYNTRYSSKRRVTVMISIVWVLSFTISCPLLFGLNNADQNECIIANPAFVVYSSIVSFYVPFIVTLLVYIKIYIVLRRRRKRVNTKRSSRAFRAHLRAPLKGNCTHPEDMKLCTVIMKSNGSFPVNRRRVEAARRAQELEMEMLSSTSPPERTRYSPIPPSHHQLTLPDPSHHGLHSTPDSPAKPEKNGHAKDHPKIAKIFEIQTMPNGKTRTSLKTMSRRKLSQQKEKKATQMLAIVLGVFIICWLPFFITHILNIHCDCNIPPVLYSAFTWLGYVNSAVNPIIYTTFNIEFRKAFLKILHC

COc1ccnc(N2CCC3(CCCN(Cc4cn(C)c5ccccc45)C3=O)CC2)n1 [CW24]
inhibition at 10 µM (D2; [1]): -1.7 ± 19.3% | inhibition at 10 µM (D2; [2]): -8.12% | inhibition at 10 µM (D2; [3]): 21.4% | inhibition at 10 µM (D2; [4]): -24.2% | inhibition at 10 µM (D2; [5]): 4.13% | inhibition at 10 µM (5-HT1B; [1]): 13.4 ± 6.1% | inhibition at 10 µM (5-HT1B; [2]): 19% | inhibition at 10 µM (5-HT1B; [3]): 18% | inhibition at 10 µM (5-HT1B; [4]): 6.23% | inhibition at 10 µM (5-HT1B; [5]): 10.4% | inhibition at 10 µM (Beta2; [1]): -10.5 ± 5.4% | inhibition at 10 µM (Beta2; [2]): -12.2% | inhibition at 10 µM (Beta2; [3]): -5.09% | inhibition at 10 µM (Beta2; [4]): -7.41% | inhibition at 10 µM (Beta2; [5]): -17.3% | inhibition at 10 µM (M5; [1]): 27.4 ± 11.1% | inhibition at 10 µM (M5; [2]): 15.3% | inhibition at 10 µM (M5; [3]): 31.9% | inhibition at 10 µM (M5; [4]): 40.5% | inhibition at 10 µM (M5; [5]): 21.6% | inhibition at 10 µM (Alpha1B; [1]): -20.7 ± 12.8% | inhibition at 10 µM (Alpha1B; [2]): -6.11% | inhibition at 10 µM (Alpha1B; [3]): -16.3% | inhibition at 10 µM (Alpha1B; [4]): -36.7% | inhibition at 10 µM (Alpha1B; [5]): -23.6% | inhibition at 10 µM (SERT; [1]): 10.8 ± 11.9% | inhibition at 10 µM (SERT; [2]): 10.6% | inhibition at 10 µM (SERT; [3]): -3.59% | inhibition at 10 µM (SERT; [4]): 10.6% | inhibition at 10 µM (SERT; [5]): 25.6% | inhibition at 10 µM (5-HT3; [1]): -4 ± 15.6% | inhibition at 10 µM (5-HT3; [2]): -7.18% | inhibition at 10 µM (5-HT3; [3]): 2.23% | inhibition at 10 µM (5-HT3; [4]): -23.9% | inhibition at 10 µM (5-HT3; [5]): 12.9%
